Measured values: US20060148858A1, “1, 2-Azole derivatives with hypoglycemic and hypolipidemic activity” (priority 2002, published 2006)

| Structure (SMILES) | melting point |
| --- | --- |
| CCOc1nn(-c2ccc(C(F)(F)F)cn2)cc1CCCOc1ccc(CCC(=O)O)cc1OCc1ccccc1 [Example 166, 3-[3-benzyloxy-4-(3-{3-ethoxy-1-[5-(trifluoromethyl)-2-pyridyl]-1H-pyrazol-4-yl}propoxy)phenyl]propanoic acid] | 115 to 116 °C |
| CCOc1nn(-c2ccc(C(F)(F)F)cn2)cc1CCCOc1cc(CCC(=O)O)cc(OC)c1 [Example 167, 3-[5-(3-{3-ethoxy-1-[5-(trifluoromethyl)-2-pyridyl]-1H-pyrazol-4-yl}propoxy)-3-methoxyphenyl]propanoic acid] | 99 to 100 °C |
| CCOc1cc(OCCCc2cn(-c3ccc(C(F)(F)F)cn3)nc2O)ccc1CCC(=O)OC [Example 171, methyl 3-[2-ethoxy-4-(3-{3-hydroxy-1-[5-(trifluoromethyl)-2-pyridyl]-1H-pyrazol-4-yl}propoxy)phenyl]propanoate] | 147 to 148 °C |
| CC(C)c1nn(-c2ccc(C(F)(F)F)cn2)cc1COc1cccc(CC(=O)O)c1 [Example 176, 3-{3-isopropyl-1-[5-(trifluoromethyl)-2-pyridyl]-1H-pyrazol-4-yl}methoxyphenylacetic acid] | 114 to 115 °C |
| CCOc1nn(-c2ccc(C(F)(F)F)cn2)cc1CCCOc1cccc(OC)c1CC(=O)O [Example 177, [6-(3-{3-ethoxy-1-[5-(trifluoromethyl)-2-pyridyl]-1H-pyrazol-4-yl}propoxy)-2-methoxyphenyl]acetic acid] | 150 to 151 °C |
| CC(C)c1nn(-c2ccc(C(F)(F)F)cc2)cc1COc1cccc(CC(=O)O)c1 [Example 178, [3-({3-isopropyl-1-[4-(trifluoromethyl)phenyl]-1H-pyrazol-4-yl}methoxy)phenyl]acetic acid] | 92 to 93 °C |
| COc1ccc(CC(=O)O)cc1OCCCc1cn(-c2ccc(C(F)(F)F)cn2)nc1C(C)C [Example 183, [3-(3-{3-isopropyl-1-[5-(trifluoromethyl)-2-pyridyl]-1H-pyrazol-4-yl}propoxy)-4-methoxyphenyl]acetic acid] | 122 to 123 °C |
| O=C(O)Cc1cccc(OCc2cn(-c3ccc(C(F)(F)F)cn3)nc2C2CCCCC2)c1 [Example 187, [3-({3-cyclohexyl-1-[5-(trifluoromethyl)-2-pyridyl]-1H-pyrazol-4-yl}methoxy)phenyl]acetic acid] | 129 to 130 °C |
| O=C(O)Cc1ccccc1OCc1cn(-c2ccc(C(F)(F)F)cn2)nc1C1CCCCC1 [Example 188, [2-({3-cyclohexyl-1-[5-(trifluoromethyl)-2-pyridyl]-1H-pyrazol-4-yl}methoxy)phenyl]acetic acid] | 131 to 132 °C |
| O=C(O)CCc1cccc(OCc2cn(-c3ccc(C(F)(F)F)cn3)nc2C2CCCCC2)c1 [Example 191, 3-(3-{3-cyclohexyl-1-[5-(trifluoromethyl)-2-pyridyl]-1H-pyrazol-4-yl}methoxyphenyl)propionic acid] | 94 to 95 °C |
| COc1cccc(CC(=O)O)c1OCCCc1cn(-c2nnc(C(F)(F)F)s2)nc1C(C)C [Example 194, [3-methoxy-2-(3-{3-(1-methylethyl)-1-[5-(trifluoromethyl)-1,3,4-thiadiazole-2-yl]-1H-pyrazol-4-yl}propoxy)phenyl]acetic acid] | 144 to 145 °C |
| O=C(O)CCCc1cccc(OCc2cn(-c3ccc(C(F)(F)F)cn3)nc2C2CCCCC2)c1 [Example 195, 4-(3-{3-cyclohexyl-1-[5-(trifluoromethyl)-2-pyridyl]-1H-pyrazol-4-yl}methoxyphenyl)butanoic acid] | 128 to 129 °C |
| CCCCc1nn(-c2ccc(C(F)(F)F)cn2)cc1CCCOc1nn(C)cc1CC(=O)O [Example 199, [3-(3-{3-butyl-1-[5-(trifluoromethyl)-2-pyridyl]-1H-pyrazol-4-yl}propoxy)-1-methyl-1H-pyrazol-4-yl]acetic acid] | 125 to 126 °C |
| CCCCc1nn(-c2ccc(C(F)(F)F)cn2)cc1CCCOc1cc(CC(=O)O)ccc1OCC [Example 202, [3-(3-{3-butyl-1-[5-(trifluoromethyl)-2-pyridyl]-1H-pyrazol-4-yl}propoxy)-4-ethoxyphenyl]acetic acid] | 105 to 106 °C |
| COc1cc(CC(=O)O)cc(OCCCc2cn(-c3ccc(C(F)(F)F)cn3)nc2C(C)C)c1 [Example 203, [3-(3-{3-isopropyl-1-[5-(trifluoromethyl)-2-pyridyl]-1H-pyrazol-4-yl}propoxy)-5-methoxyphenyl]acetic acid] | 109 to 110 °C |
| COc1ccc(CC(=O)O)c(OCCCc2cn(-c3ccc(C(F)(F)F)cn3)nc2C(C)C)c1 [Example 205, [2-(3-{3-isopropyl-1-[5-(trifluoromethyl)-2-pyridyl]-1H-pyrazol-4-yl}propoxy)-4-methoxyphenyl]acetic acid] | 143 to 144 °C |
| COc1ccc(OCCCc2cn(-c3ccc(C(F)(F)F)cn3)nc2C(C)C)c(CC(=O)O)c1 [Example 206, [2-(3-{3-isopropyl-1-[5-(trifluoromethyl)-2-pyridyl]-1H-pyrazol-4-yl}propoxy)-5-methoxyphenyl]acetic acid] | 143 to 144 °C |

| Structure (SMILES) | melting point |
| --- | --- |
| COc1cccc(OCCCc2cn(-c3ccc(C(F)(F)F)cn3)nc2C(C)C)c1CC(=O)O [Example 208, [2-(3-{3-isopropyl-1-[5-(trifluoromethyl)-2-pyridyl]-1H-pyrazol-4-yl}propoxy)-6-methoxyphenyl]acetic acid] | 183 to 184 °C |
| CCCc1nn(-c2ccc(C(F)(F)F)cn2)cc1CCCOc1c(F)cccc1CC(=O)O [Example 211, [3-fluoro-2-(3-{3-propyl-1-[5-(trifluoromethyl)-2-pyridyl]-1H-pyrazol-4-yl}propoxy)phenyl]acetic acid] | 105 to 106 °C |
| CCC(C)c1nn(-c2ccc(C(F)(F)F)cn2)cc1CCCOc1c(C)cccc1CC(=O)O (stereo not drawn) [Example 219, [3-methyl-2-(3-{3-(1-methylpropyl)-1-[5-(trifluoromethyl)-2-pyridyl]-1H-pyrazol-4-yl}propoxy)phenyl]acetic acid] | 134 to 135 °C |
| CC(C)c1nn(-c2ccc(C(F)(F)F)cn2)cc1CCCOc1c(C#N)cccc1CC(=O)O [Example 231, [3-cyano-2-(3-{3-isopropyl-1-[5-(trifluoromethyl)-2-pyridinyl]-1H-pyrazol-4-yl}propoxy)phenyl]acetic acid] | 144 to 145 °C |
| CCCc1nn(-c2ccc(C(F)(F)F)cn2)cc1CCCOc1c(C#N)cccc1CC(=O)O [Example 233, [3-cyano-2-(3-{3-propyl-1-[5-(trifluoromethyl)-2-pyridinyl]-1H-pyrazol-4-yl}propoxy)phenyl]acetic acid] | 146 to 147 °C |
| CCc1cccc(CC(=O)O)c1OCCCc1cn(-c2ccc(Cl)cn2)nc1C(C)C [Example 243, (2-{3-[1-(5-chloro-2-pyridinyl)-3-isopropyl-1H-pyrazol-4-yl]propoxy}-3-ethylphenyl)acetic acid] | 142 to 143 °C |
| CCc1cccc(CC(=O)O)c1OCCCc1cn(-c2ncc(C(F)(F)F)cc2Cl)nc1C(C)C [Example 249, [2-(3-{1-[3-chloro-5-(trifluoromethyl)-2-pyridinyl]-3-isopropyl-1H-pyrazol-4-yl}propoxy)-3-ethylphenyl]acetic acid] | 93 to 95 °C |
| CCc1cccc(CC(=O)O)c1OCCCc1cn(-c2ncc(Cl)cc2Cl)nc1C(C)C [Example 251, (2-{3-[1-(3,5-dichloro-2-pyridinyl)-3-isopropyl-1H-pyrazol-4-yl]propoxy}-3-ethylphenyl)acetic acid] | 93 to 95 °C |
| CCCc1cn(CC(=O)O)nc1OCCCc1cn(-c2ccc(C(F)(F)F)cn2)nc1CCC [Example 254, [4-propyl-3-(3-{3-propyl-1-[5-(trifluoromethyl)-2-pyridyl]-1H-pyrazol-4-yl}propoxy)-1H-pyrazol-1-yl]acetic acid] | 138 to 139 °C |
| CCCc1nn(-c2ccc(C(F)(F)F)cn2)cc1CCCOc1cc(CCC(=O)O)n(C2CCCCC2)n1 [Example 256, 3-[1-cyclohexyl-3-(3-{3-propyl-1-[5-(trifluoromethyl)-2-pyridyl]-1H-pyrazol-4-yl}propoxy)-1H-pyrazol-5-yl]propanoic acid] | 164 to 165 °C |
| CCOc1nn(-c2ccc(C(F)(F)F)cn2)cc1CCCOc1cc(CCC(=O)O)n(C2CCCCC2)n1 [Example 257, 3-[1-cyclohexyl-3-(3-{3-ethoxy-1-[5-(trifluoromethyl)-2-pyridyl]-1H-pyrazol-4-yl}propoxy)-1H-pyrazol-5-yl]propanoic acid] | 89 to 90 °C |
| O=C(O)CCc1cc(OCCCc2cn(-c3ccc(C(F)(F)F)cn3)nc2C2CCCCC2)nn1C1CCCCC1 [Example 261, 3-[1-cyclohexyl-3-(3-{3-cyclohexyl-1-[5-(trifluoromethyl)-2-pyridyl]-1H-pyrazol-4-yl}propoxy)-1H-pyrazol-5-yl]propanoic acid] | 190 to 191 °C |
| CC(C)c1nn(-c2ccc(C(F)(F)F)cn2)cc1CCCOc1cc(CCC(=O)O)n(C2CCCCC2)n1 [Example 262, 3-[1-cyclohexyl-3-(3-{3-isopropyl-1-[5-(trifluoromethyl)-2-pyridyl]-1H-pyrazol-4-yl}propoxy)-1H-pyrazol-5-yl]propanoic acid] | 166 to 167 °C |
| CC(C)c1nn(-c2ccc(C(F)(F)F)cn2)cc1CCCOc1cc(CCC(=O)O)n(C(C)C)n1 [Example 263, 3-[1-isopropyl-3-(3-{3-isopropyl-1-[5-(trifluoromethyl)-2-pyridyl]-1H-pyrazol-4-yl}propoxy)-1H-pyrazol-5-yl]propanoic acid] | 130 to 131 °C |
| COc1cccc(CC(=O)O)c1OCCCc1cn(-c2ccc(NC(C)=O)cn2)nc1C(C)C [Example 265, (2-{3-[1-(5-acetylamino-2-pyridyl)-3-isopropyl-1H-pyrazol-4-yl]propoxy}-3-methoxyphenyl)acetic acid] | 158 to 159 °C |
| CCC(=O)Nc1ccc(-n2cc(CCCOc3c(CC(=O)O)cccc3OC)c(C(C)C)n2)nc1 [Example 266, (3-methoxy-2-{3-[3-isopropyl-1-(5-propanoylamino-2-pyridyl)-1H-pyrazol-4-yl]propoxy}phenyl)acetic acid] | 147 to 148 °C |
